# ChEMBL document CHEMBL1135223, “Peptidomimetics of efflux pump inhibitors potentiate the activity of levofloxacin in Pseudomonas aeruginosa” (2002)
# Test system: Pseudomonas aeruginosa
# Experiment: Minimum concentration required to reduce (potentiate) the MIC of levofloxacin of Pseudomonas aeruginosa by 8-folds
# Assay type: functional
row,SMILES,MPC8 [µg/mL]
1,Cc1ccc(CCN(CCC(=O)Nc2cnc3ccccc3c2)C(=O)[C@H](N)CCCN)cc1.O=C(O)C(F)(F)F.O=C(O)C(F)(F)F,5
2,NCCC[C@@H](N)C(=O)N[C@H](CCc1ccccc1)C(O)c1nc2ccccc2[nH]1.O=C(O)C(F)(F)F.O=C(O)C(F)(F)F (some centres undefined),20
3,NCCC[C@@H](N)C(=O)N[C@H](CCc1ccccc1)CSc1ccc(Cl)cc1.O=C(O)C(F)(F)F.O=C(O)C(F)(F)F,1.25
4,NCCC[C@@H](N)C(O)CN[C@H](CCc1ccccc1)C(=O)Nc1cnc2ccccc2c1.O=C(O)C(F)(F)F.O=C(O)C(F)(F)F (some centres undefined),2.5
5,NCCC[C@@H](N)C(O)CN[C@H](CCc1ccccc1)c1nc(C(=O)Nc2cnc3ccccc3c2)co1.O=C(O)C(F)(F)F.O=C(O)C(F)(F)F (some centres undefined),5
6,NCCC[C@@H](N)C(=O)N[C@H](CCc1ccccc1)C(O)c1nc2cc(Cl)ccc2o1.O=C(O)C(F)(F)F.O=C(O)C(F)(F)F (some centres undefined),5
7,NCCC[C@@H](N)C(=O)N[C@H](CCc1ccccc1)C(O)c1nc2ccccc2o1.O=C(O)C(F)(F)F.O=C(O)C(F)(F)F (some centres undefined),10
8,NCCC[C@@H](N)C(=O)N[C@H](CCc1ccccc1)COc1ccc(Cl)cc1.O=C(O)C(F)(F)F.O=C(O)C(F)(F)F,5
9,NCCC[C@@H](N)C(=O)N[C@H](CCc1ccccc1)c1nc(C(=O)Nc2cnc3ccccc3c2)co1.O=C(O)C(F)(F)F.O=C(O)C(F)(F)F,5
10,NCCC[C@@H](N)C(=O)N(CCC(=O)Nc1cnc2ccccc2c1)CCc1ccccc1.O=C(O)C(F)(F)F.O=C(O)C(F)(F)F,10
11,NCCC[C@@H](N)C(=O)N[C@H](CCc1ccccc1)C(=O)Nc1cnc2ccccc2c1,10
12,Cc1cc2nc(C(O)[C@@H](CCc3ccccc3)NCC(O)[C@H](N)CCCN)oc2cc1C.O=C(O)C(F)(F)F.O=C(O)C(F)(F)F (some centres undefined),1.25
13,CC(C)CCN(CCC(=O)Nc1cnc2ccccc2c1)C(=O)[C@H](N)CCCN.O=C(O)C(F)(F)F.O=C(O)C(F)(F)F,10
14,NCCC[C@@H](N)C(=O)N[C@H](CCc1ccccc1)c1nc(C(=O)Nc2ccc3ccccc3c2)co1.O=C(O)C(F)(F)F.O=C(O)C(F)(F)F,2.5
15,Cc1cc2nc(C(O)[C@@H](CCc3ccccc3)NC(=O)[C@H](N)CCCN)oc2cc1C.O=C(O)C(F)(F)F.O=C(O)C(F)(F)F (some centres undefined),2.5
16,COc1ccc(CCN(CCC(=O)Nc2cnc3ccccc3c2)C(=O)[C@H](N)CCCN)cc1.O=C(O)C(F)(F)F.O=C(O)C(F)(F)F,10
17,NCCC[C@@H](N)C(=O)N[C@H](CCc1ccccc1)C(O)c1nc2ccccc2s1.O=C(O)C(F)(F)F.O=C(O)C(F)(F)F (some centres undefined),20

# Test system: Pseudomonas aeruginosa
# Experiment: Tested for the minimum inhibitory concentration (MIC) against growth of PAM 1032, a strain of Pseudomonas aeruginosa
# Assay type: functional
row,SMILES,MIC [µg/mL]
1,Cc1ccc(CCN(CCC(=O)Nc2cnc3ccccc3c2)C(=O)[C@H](N)CCCN)cc1.O=C(O)C(F)(F)F.O=C(O)C(F)(F)F,256
2,NCCC[C@@H](N)C(=O)N[C@H](CCc1ccccc1)C(O)c1nc2ccccc2[nH]1.O=C(O)C(F)(F)F.O=C(O)C(F)(F)F (some centres undefined),> 512
3,NCCC[C@@H](N)C(=O)N[C@H](CCc1ccccc1)CSc1ccc(Cl)cc1.O=C(O)C(F)(F)F.O=C(O)C(F)(F)F,64
4,NCCC[C@@H](N)C(O)CN[C@H](CCc1ccccc1)C(=O)Nc1cnc2ccccc2c1.O=C(O)C(F)(F)F.O=C(O)C(F)(F)F (some centres undefined),128
5,NCCC[C@@H](N)C(O)CN[C@H](CCc1ccccc1)c1nc(C(=O)Nc2cnc3ccccc3c2)co1.O=C(O)C(F)(F)F.O=C(O)C(F)(F)F (some centres undefined),64
6,NCCC[C@@H](N)C(=O)N[C@H](CCc1ccccc1)C(O)c1nc2cc(Cl)ccc2o1.O=C(O)C(F)(F)F.O=C(O)C(F)(F)F (some centres undefined),256
7,NCCC[C@@H](N)C(=O)N[C@H](CCc1ccccc1)C(O)c1nc2ccccc2o1.O=C(O)C(F)(F)F.O=C(O)C(F)(F)F (some centres undefined),> 512
8,NCCC[C@@H](N)C(=O)N[C@H](CCc1ccccc1)COc1ccc(Cl)cc1.O=C(O)C(F)(F)F.O=C(O)C(F)(F)F,128
9,NCCC[C@@H](N)C(=O)N[C@H](CCc1ccccc1)c1nc(C(=O)Nc2cnc3ccccc3c2)co1.O=C(O)C(F)(F)F.O=C(O)C(F)(F)F,128
10,NCCC[C@@H](N)C(=O)N(CCC(=O)Nc1cnc2ccccc2c1)CCc1ccccc1.O=C(O)C(F)(F)F.O=C(O)C(F)(F)F,> 512
11,NCCC[C@@H](N)C(=O)N[C@H](CCc1ccccc1)C(=O)Nc1cnc2ccccc2c1,> 512
12,Cc1cc2nc(C(O)[C@@H](CCc3ccccc3)NCC(O)[C@H](N)CCCN)oc2cc1C.O=C(O)C(F)(F)F.O=C(O)C(F)(F)F (some centres undefined),128
13,CC(C)CCN(CCC(=O)Nc1cnc2ccccc2c1)C(=O)[C@H](N)CCCN.O=C(O)C(F)(F)F.O=C(O)C(F)(F)F,> 512
14,NCCC[C@@H](N)C(=O)N[C@H](CCc1ccccc1)c1nc(C(=O)Nc2ccc3ccccc3c2)co1.O=C(O)C(F)(F)F.O=C(O)C(F)(F)F,16
15,Cc1cc2nc(C(O)[C@@H](CCc3ccccc3)NC(=O)[C@H](N)CCCN)oc2cc1C.O=C(O)C(F)(F)F.O=C(O)C(F)(F)F (some centres undefined),128
16,COc1ccc(CCN(CCC(=O)Nc2cnc3ccccc3c2)C(=O)[C@H](N)CCCN)cc1.O=C(O)C(F)(F)F.O=C(O)C(F)(F)F,512
17,NCCC[C@@H](N)C(=O)N[C@H](CCc1ccccc1)C(O)c1nc2ccccc2s1.O=C(O)C(F)(F)F.O=C(O)C(F)(F)F (some centres undefined),512
